Patent US12173088B2, “Anti-microbial peptides” (priority 2018, dated 2024)
In brackets after ≈: the same amount, converted by molar mass. Where two headings read alike, the source gives them in different places. Peptide text beside a SMILES is read from it.

Tests used:
S. aureus USA300 = experiment: microbe, parasite or virus in culture; type: cell-based, Staphylococcus aureus
Excerpt: The bacterial strains used include the Gram-positive strains Staphylococcus aureus USA300 LAC, S. epidermidis 1457, and Bacillus subtilis 168, as well as the Gram-negative isolates Escherichia coli K12 and Acinetobacter baumannii B2367-12. Additional, drug resistance strains include Gram-positive Enterococcus faecium V286-17 (VRE) and S. aureus M838-17 (MRSA) and Gram-negative E. coli E423-17, E. coli E416-17 (ampC), and P. aeruginosa E411-17. Bacteria were cultivated in tryptic soy broth (TSB) (BD Bioscience, MD).
(§1) The antibacterial activity of peptides was evaluated using a standard broth microdilution protocol with minor modifications as described (Mishra, et al. (2012) J. Am. Chem. Soc., 134:12426-12429). In brief, logarithmic phase bacterial cultures (i.e., optical density at 600 nm≈0.5) were diluted to OD600 0.001 and partitioned into a 96-well polystyrene microplate at 90 μL per well. After treatment with 10 μL of peptide solutions two fold diluted to various concentrations, microplates were incubated at 37° C. overnight and read on a ChroMate® 4300 Microplate Reader at 630 nm (GMI, Ramsey, MN). […] To study the influence of medium conditions on the antimicrobial activity of peptides against S. aureus USA300, up to 200 mM sodium chloride (NaCl), 2 mM of calcium chloride, 5-10% of human serum, mouse plasma, fluid, or supernatants of tissue homogenates were included into the assays.
(§2) The bacterial strains used include the Gram-positive bacteria methicillin-resistant Staphylococcus aureus USA300, Enterococcus faecium V286-17 (VRE), S. aureus M838-17 (MRSA) and Gram-negative bacteria E. coli E423-17, E416-7 (ampC), P. aeruginosa E411-17, PA01, K. pneumoniae E406-17, ATCC13883, and A. baumannii B26-16. Bacteria were cultivated in tryptic soy broth (TSB) from BD Bioscience.
(§3) The antibacterial activity of peptides was evaluated using a standard broth microdilution protocol with minor modifications (Mishra, et al. (2017) Acta Biomater., 49:316-328). In brief, logarithmic phase bacterial cultures (i.e., optical density at 600 nm≈0.5) were diluted to 0.001 OD and aliquoted 90 μL per well into a 96-well polystyrene microplate. Added 10 μL peptides per well with various concentrations, plates were incubated at 37° C., overnight. Post incubation the plates are read at 630 nm using a ChroMate® Microplate Reader (GMI). […] To study the influence of medium conditions on the antimicrobial activity of peptides against S. aureus USA300 at different pHs (6.8, 7.2, and 8.0), 150 mM sodium chloride (NaCl), 5-10% of human serum, mouse plasma, and peritoneal fluid were included into the assays.

P. aeruginosa PAO1 = type: cell-based, Pseudomonas aeruginosa
Procedure: as §1, §2, §3

[1] = test system: human red blood cells (hRBCs); experiment: Hemolytic assay; type: cell-based
Procedure: Briefly, human red blood cells (hRBCs) were washed three times with phosphate buffer saline (PBS) and diluted to a 2% solution (v/v). After peptide treatment, incubation at 37° C. for one hour, and centrifugation at 5000 rpm for 10 minutes, aliquots of the supernatant were carefully transferred to a fresh 96-well microplate. The amount of hemoglobin released was measured at 545 nm. The percent lysis was calculated by assuming 100% release when human blood cells were treated with 2% Triton™ X-100, and 0% release when incubated with PBS buffer. The peptide concentration that caused 50% lysis of hRBCs is defined as HL50. The cell selectivity index (CSI) was calculated as the ratio between HL50 and MIC of the corresponding peptide against a select pathogenic species.
Hemolytic assays of peptides were performed as described (Mishra, et al. (2017) Acta Biomater., 49:316-328). Briefly, human red blood cells (hRBCs) obtained from UNMC Blood Bank. The blood washed 3× with isotonic saline (0.9% NaCl) and diluted to 2% blood cells (v/v). Peptide horine and verine at various concentrations were added into the 2% blood cells and incubated at 37° C. for 1 hour. Post incubation the plates were spun at 2000 rpm for 10 minutes, aliquots of the supernatant were carefully transferred to a fresh 96-well microplate. The amount of cells lysed is proportional to the hemoglobin released and measured at 545 nm using a ChroMate® microplate reader. The percent lysis was calculated by assuming 100% release when human blood cells were treated with 1% Triton™ X-100, and 0% release when incubated with PBS. The peptide concentration that caused 50% lysis of hRBCs is defined as HL50.

E. coli ATCC 25922 = type: cell-based, Escherichia coli
Procedure: as §1, §3

K. pneumoniae ATCC 13883 = type: cell-based, Klebsiella pneumoniae; conditions: ATCC 13883
Procedure: as §1, §2, §3

MIC S. aureus USA 300 (S. aureus USA300; USA300) [µM] | MIC P. aeruginosa PAO1 (P. aeruginosa PAO1; PAO1) [µM] | MIC E. coli ATCC 25922 (E. coli ATCC 25922; ATCC 25922) [µM] | MIC K. pneumoniae ATCC 13883 (K. pneumoniae ATCC 13883) [µM] | MIC K. pneumonia ATCC 13883 (K. pneumoniae ATCC 13883) [µM] | Compound | HL50 [1] [µM] | further results
12.5 (≈ 15.7 µg/mL) | >25 | 12.5 (≈ 15.7 µg/mL) | – | – | CC(C)C[C@H](NC(=O)[C@H](CC(C)C)NC(=O)[C@H](CCCCN)NC(=O)CNC(=O)[C@H](C)NC(=O)[C@H](C)NC(=O)[C@H](CCCCN)NC(=O)[C@H](CC(C)C)NC(=O)[C@H](C)NC(=O)[C@H](CO)NC(=O)[C@H](CC(C)C)NC(=O)[C@H](CC(C)C)NC(=O)CN)C(N)=O [DFT521, GLLSALKAAGKLL] (H-GLLSALKAAGKLL-NH2; N-terminus assumed) | >50 | MIC against S. aureus (S. aureus USA300; USA300): 12.5 to 25 µM
>25 | >25 | >25 | – | – | CC(C)C[C@H](NC(=O)[C@H](CC(C)C)NC(=O)[C@H](CCCCN)NC(=O)CNC(=O)[C@H](C)NC(=O)[C@H](C)NC(=O)[C@H](CCCCN)NC(=O)[C@H](C)NC(=O)[C@H](C)NC(=O)[C@H](CO)NC(=O)[C@H](CC(C)C)NC(=O)[C@H](CC(C)C)NC(=O)CN)C(N)=O [DFT522, GLLSAAKAAGKLL] (H-GLLSAAKAAGKLL-NH2; N-terminus assumed) | 50 | Antimicrobial activity (S. aureus USA300; at 25 μM): inactive

Second part, the molecule before the results:

Compound | MIC S. aureus USA 300 (S. aureus USA300; USA300) [µM] | MIC P. aeruginosa PAO1 (P. aeruginosa PAO1; PAO1) [µM] | MIC E. coli ATCC 25922 (E. coli ATCC 25922; ATCC 25922) [µM] | MIC K. pneumoniae ATCC 13883 (K. pneumoniae ATCC 13883) [µM] | MIC K. pneumonia ATCC 13883 (K. pneumoniae ATCC 13883) [µM] | HL50 [1] [µM] | further results
CC(C)C[C@H](NC(=O)[C@H](CC(C)C)NC(=O)[C@H](CCCCN)NC(=O)CNC(=O)[C@H](CC(C)C)NC(=O)[C@H](CC(C)C)NC(=O)[C@H](CO)NC(=O)[C@H](CC(C)C)NC(=O)[C@H](CO)NC(=O)[C@H](CC(C)C)NC(=O)[C@H](CC(C)C)NC(=O)CN)C(N)=O [DFT523, GLLSL-SLLGKLL] (H-GLLSLSLLGKLL-NH2; N-terminus and C-terminus assumed) | – | – | – | – | – | – | MIC against S. aureus (S. aureus USA300; Example 1): 12.5 to 25 µM; MIC S. aureus USA 300 (S. aureus USA300; Table 3, quantified by UV): 12.5 µM (≈ 15.3 µg/mL); MIC P. aeruginosa PAO1 (P. aeruginosa PAO1; Table 3, quantified by UV): >25 µM; HL50 ([1]; Table 3, hRBCs 2% v/v): >50 µM; MIC against E. coli (E. coli ATCC 25922): 12.5 to 25 µM; MIC E. coli ATCC 25922 (E. coli ATCC 25922; Table 3, quantified by UV): 25 µM (≈ 30.6 µg/mL)
CC[C@H](C)[C@H](NC(=O)[C@H](CCCCN)NC(=O)[C@H](CCCNC(=N)N)NC(=O)[C@H](CC(C)C)NC(=O)[C@H](Cc1c[nH]c2ccccc12)NC(=O)[C@@H](N)Cc1c[nH]c2ccccc12)C(=O)N[C@@H](Cc1c[nH]c2ccccc12)C(=O)N[C@@H](Cc1c[nH]c2ccccc12)C(=O)O [WW292, WWLRKIWW] (H-WWLRKIWW-OH; N-terminus and C-terminus assumed) | 6.2 (≈ 7.9 µg/mL) | – | 25 (≈ 31.8 µg/mL) | >50 | – | – | –
CC[C@H](C)[C@H](NC(=O)[C@H](CCCCN)NC(=O)[C@H](CCCNC(=N)N)NC(=O)[C@H](CC(C)C)NC(=O)[C@@H](N)Cc1c[nH]c2ccccc12)C(=O)N[C@@H](Cc1c[nH]c2ccccc12)C(=O)N[C@@H](Cc1c[nH]c2ccccc12)C(=O)N[C@@H](Cc1c[nH]c2ccccc12)C(=O)O [WW293, WLRKIWWW] (H-WLRKIWWW-OH; N-terminus and C-terminus assumed) | 3.1 to 6.2 | – | 12.5 to 25 | 25 (≈ 31.8 µg/mL) | – | – | –
CC[C@H](C)[C@H](NC(=O)[C@H](CCCCN)NC(=O)[C@H](CCCNC(=N)N)NC(=O)[C@@H](N)CC(C)C)C(=O)N[C@@H](Cc1c[nH]c2ccccc12)C(=O)N[C@@H](Cc1c[nH]c2ccccc12)C(=O)N[C@@H](Cc1c[nH]c2ccccc12)C(=O)N[C@@H](Cc1c[nH]c2ccccc12)C(=O)O [WW294, LRKIWWWW] (H-LRKIWWWW-OH; N-terminus and C-terminus assumed) | 3.1 to 6.2 | – | 12.5 (≈ 15.9 µg/mL) | 6.2 to 12.5 | – | – | –
CC[C@H](C)[C@H](NC(=O)[C@@H](N)CCCCN)C(=O)N[C@@H](Cc1c[nH]c2ccccc12)C(=O)N[C@@H](Cc1c[nH]c2ccccc12)C(=O)N[C@@H](Cc1c[nH]c2ccccc12)C(=O)N[C@@H](Cc1c[nH]c2ccccc12)C(=O)N[C@@H](CC(C)C)C(=O)N[C@@H](CCCNC(=N)N)C(=O)O [WW296, KIWWWWLR] (H-KIWWWWLR-OH; N-terminus and C-terminus assumed) | 3.1 (≈ 3.95 µg/mL) | – | 6.2 to 12.5 | 12.5 (≈ 15.9 µg/mL) | – | – | –
CC[C@H](C)[C@H](NC(=O)[C@H](CCCCN)NC(=O)[C@H](CCCNC(=N)N)NC(=O)[C@H](CC(C)C)NC(=O)[C@H](Cc1c[nH]c2ccccc12)NC(=O)[C@H](Cc1c[nH]c2ccccc12)NC(=O)[C@H](Cc1c[nH]c2ccccc12)NC(=O)[C@@H](N)Cc1c[nH]c2ccccc12)C(=O)O [WW298, WWWWLRKI] (H-WWWWLRKI-OH; N-terminus and C-terminus assumed) | 1.5 to 3.1 | – | 12.5 (≈ 15.9 µg/mL) | 6.2 to 12.5 | – | – | –
CC[C@H](C)[C@H](NC(=O)[C@H](CCCNC(=N)N)NC(=O)[C@H](CCCNC(=N)N)NC(=O)[C@H](CC(C)C)NC(=O)[C@H](Cc1c[nH]c2ccccc12)NC(=O)[C@H](Cc1c[nH]c2ccccc12)NC(=O)[C@@H](N)Cc1c[nH]c2ccccc12)C(=O)N[C@@H](Cc1c[nH]c2ccccc12)C(N)=O [WW299, WWWLRRIW] (H-WWWLRRIW-NH2; N-terminus and C-terminus assumed) | – | >50 | – | – | 25 (≈ 32.5 µg/mL) | 35 | –
CC[C@H](C)[C@H](NC(=O)[C@H](CCCNC(=N)N)NC(=O)[C@H](CCCNC(=N)N)NC(=O)[C@H](CC(C)C)NC(=O)[C@H](Cc1c[nH]c2ccccc12)NC(=O)[C@H](Cc1c[nH]c2ccccc12)NC(=O)[C@@H](N)CCCNC(=N)N)C(=O)N[C@@H](Cc1c[nH]c2ccccc12)C(N)=O [WW300, RWWLRRIW] (H-RWWLRRIW-NH2; N-terminus and C-terminus assumed) | – | 12.5 (≈ 15.9 µg/mL) | – | – | >50 | >200 | –
CC[C@H](C)[C@H](NC(=O)[C@H](CCCNC(=N)N)NC(=O)[C@H](CCCNC(=N)N)NC(=O)[C@H](CC(C)C)NC(=O)[C@H](Cc1c[nH]c2ccccc12)NC(=O)[C@H](CCCNC(=N)N)NC(=O)[C@@H](N)Cc1c[nH]c2ccccc12)C(=O)N[C@@H](Cc1c[nH]c2ccccc12)C(N)=O [WW301, WRWLRRIW] (H-WRWLRRIW-NH2; N-terminus and C-terminus assumed) | – | 6.2 (≈ 7.88 µg/mL) | – | – | 25 (≈ 31.8 µg/mL) | 100 | –
CC[C@H](C)[C@H](NC(=O)[C@H](CCCNC(=N)N)NC(=O)[C@H](CCCNC(=N)N)NC(=O)[C@H](CC(C)C)NC(=O)[C@H](CCCNC(=N)N)NC(=O)[C@H](Cc1c[nH]c2ccccc12)NC(=O)[C@@H](N)Cc1c[nH]c2ccccc12)C(=O)N[C@@H](Cc1c[nH]c2ccccc12)C(N)=O [WW302, WWRLRRIW] (H-WWRLRRIW-NH2; N-terminus and C-terminus assumed) | – | 12.5 (≈ 15.9 µg/mL) | – | – | >25 | >200 | –
